The conditions of data set [1]: irinotecan, SN-38 and APC, following administration.
A short description of data set [2]: in vivo. The settings on record: mouse.
The subject of data set [3] is NB-1771 tumors. The experiment in a line: Combination study against NB-1771 xenografts. Type of data set: in vivo, mice. From the text:
It has been have shown that the antitumor activity of camptothecins is highly schedule dependent. […] To determine whether there was similar schedule-dependency for temozolomide, the antitumor activity of this agent was examined when given daily for 5 days, 2×5 days per 21 day cycle or 3×5 days per 28 day cycle. See, as incorporated by reference, Houghton, P. J. et al., Clinical Cancer Res. Vol. 6, 4110-4118, October 2000. The total dose per cycle was constant. […] In this experiment mice received a cumulative dose of 210 mg/kg per cycle. Mice received 3 cycles of treatment (total cumulative dose was 630 mg/kg).

The test system of data set [4] is Rh18 rhabdomyosarcoma. The experiment in a line: Combination study against Rh18 rhabdomyosarcoma xenografts. Type of data set: in vivo, mice.
The conditions of data set [5]: same total dose given over 10 days versus over 5 days or as a single administration; cited from earlier work.
Data set [6] relates to NB-SD neuroblastoma xenografts. Put plainly: Combination study against NB-SD neuroblastoma xenografts. The format is in vivo, mice.
Data set [7] concerns advanced melanoma. Conditions: cited from earlier work.
In data set [8] the test system is five other xenograft lines. The experiment in a line: Schedule dependence of temozolomide in five other xenograft lines. The format is in vivo, mice.
Description: To determine whether there was similar schedule-dependency for temozolomide, the antitumor activity of this agent was examined when given daily for 5 days, 2×5 days per 21 day cycle or 3×5 days per 28 day cycle. […] The total dose per cycle was constant. […] In this experiment mice received a cumulative dose of 210 mg/kg per cycle. Mice received 3 cycles of treatment (total cumulative dose was 630 mg/kg).
The subject of data set [9] is NB-1382 xenografts. The experiment in a line: Schedule dependence of temozolomide against NB-1382 xenografts. The format is in vivo, mice. On the procedure:
It has been have shown that the antitumor activity of camptothecins is highly schedule dependent. […] The total dose per cycle was constant. […] In this experiment mice received a cumulative dose of 210 mg/kg per cycle.

In data set [10] the test system is glioblastoma line, SJ-GBM2.
Description: To determine whether there was similar schedule-dependency for temozolomide, the antitumor activity of this agent was examined when given daily for 5 days, 2×5 days per 21 day cycle or 3×5 days per 28 day cycle. […] The total dose per cycle was constant. […] Mice received 3 cycles of treatment (total cumulative dose was 630 mg/kg).

Molecules are shown by their SMILES.

As for `CCc1c2c(nc3ccc(OC(=O)N4CCC(NCCCCC(=O)O)CC4)cc13)-c1cc3c(c(=O)n1C2)COC(=O)[C@]3(O)CC` [APC], in data set [1], the apparent tmax was determined as 60 min.

For `CCc1c2c(nc3ccc(O)cc13)-c1cc3c(c(=O)n1C2)COC(=O)[C@]3(O)CC` [SN-38], in data set [1], the apparent tmax is 15 min.

In the case of `CCc1c2c(nc3ccc(OC(=O)N4CCC(N5CCCCC5)CC4)cc13)-c1cc3c(c(=O)n1C2)COC(=O)[C@]3(O)CC` [irinotecan, 7-ethyl-10-(4-[1-piperidino)-1-piperidino]-carbonyloxy-camptothecin], in [2], the AUC(0-inf) is 1820 ng·h/mL, the highest concentration (Cmax) amounted to 1240 ng/mL and the Tmax was 30 min. Besides, in data set [3] (CPT-11 alone at 0.61 mg/kg), the tumor response entry is on record as “an occasional CR”. The “tumor status at week 12” value in data set [3] (CPT-11 alone at 1.25 or 0.61 mg/kg) is “all tumors had progressed”. The tumor response entry in [4] (CPT-11 alone at the doses used in the combination) is reported as “few CRs”. Also, the “antitumor activity by schedule” value in data set [5] is recorded as “significantly more active”. Further, in [6] (CPT-11 alone at 0.4 mg/kg), the tumor response result is “tumors progressed”.

Turning to `Cn1nnc2c(C(N)=O)ncn2c1=O` [temozolomide, 3,4-dihydro-3-methyl-4-oxoimidazo-[5,1-d]1,2,3,4-tetrazin-8-carboximide], the AUC(0-inf) in data set [2] amounted to 47000 ng·h/mL. Also, the peak level in [2] (Cmax) was 36000 ng/mL. Also, the Tmax in data set [2] was 30 min. Besides, the “clinical responses, % of patients” value in data set [7] (patients having advanced melanoma, Newlands et al., Br. J Cancer 1992) is reported as 17%. For the same compound, the “clinical response, % of patients” value in data set [7] (patients with advanced melanoma, Journal of Clinical Oncology 1995) is on record as 21%. In addition, the “sensitivity of tumors to single agent” value in data set [3] (temozolomide as a single agent) is on record as “relatively sensitive”. In addition, the “activity of most intensive schedule (daily for 5 consecutive days per cycle) compared to the other schedules” value in data set [8] (all experiments) is “either more active or equally active”. Moreover, in [8] (five other xenograft lines (data not shown)), the schedule-dependent antitumor activity result is on record as “Far less schedule-dependent antitumor activity”. Moreover, the “sensitivity of xenograft to single agent” value in [4] (temozolomide as a single agent) is given as “poorly sensitive”. Moreover, the tumor response entry in data set [9] (lower doses given over more protracted periods (2x5 days per 21 day cycle, 3x5 days per 28 day cycle), same total dose per cycle) was “progressively less effective”; in data set [9] (temozolomide given over 5 days, 42 mg/kg/dose, 210 mg/kg per cycle, 3 cycles), “CRs were achieved in all mice, and were maintained at week 12”; in data set [6] (temozolomide alone at tolerated dose levels), “little activity”; in [10] (temozolomide alone at 66 or 42 mg/kg, during the 8 weeks of treatment), “some PRs, and an occasional CR”. In [10] (temozolomide alone at 42 mg/kg, tumor volume at end of treatment similar to initiation), the “overall effect of treatment” value is “stasis”. Further, in data set [10] (temozolomide alone, higher dose level (66 mg/kg)), the toxicity result is “lethal during cycle 3 of treatment”.

One may read the AUC(0-inf) as total exposure, with the tail of the curve extrapolated. Broadly, the Cmax is the maximum level reached in the sampled fluid or tissue. Usually Tmax stands for the time from dosing to the highest level.

The record behind these values is US20030229112A1, “Combination therapy for cancer” (priority 2000, published 2003).
